Test results: ChEMBL document CHEMBL2303647, “Data associated with the publication PLoS ONE, 8(3), e57888, (2013) PMID: 23505445. Compounds: GSK PKIS; Assays: NIH NCATS”

Experiments:
[1] = target: T1, Coelenterazine h 2-monooxygenase (Renilla reniformis, UniProt P27652)
T1 sequence (P27652 whole entry): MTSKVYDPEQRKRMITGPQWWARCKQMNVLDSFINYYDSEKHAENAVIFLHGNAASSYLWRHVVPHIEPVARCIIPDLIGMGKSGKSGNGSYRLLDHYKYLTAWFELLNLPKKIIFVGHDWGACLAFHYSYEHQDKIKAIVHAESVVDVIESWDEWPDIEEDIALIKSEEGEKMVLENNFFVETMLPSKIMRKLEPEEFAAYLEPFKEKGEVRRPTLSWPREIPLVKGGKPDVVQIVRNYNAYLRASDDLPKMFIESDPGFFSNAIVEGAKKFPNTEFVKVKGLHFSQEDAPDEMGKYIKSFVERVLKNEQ
Description: GSK_PKIS: Inhibition of Sea Pansy Luciferase (Data from PubChem: AID 652015) [NIH NCATS]

[2] = target: Luciferin 4-monooxygenase (Photinus pyralis, UniProt P08659)
Sequence of Luciferin 4-monooxygenase (P08659 whole entry): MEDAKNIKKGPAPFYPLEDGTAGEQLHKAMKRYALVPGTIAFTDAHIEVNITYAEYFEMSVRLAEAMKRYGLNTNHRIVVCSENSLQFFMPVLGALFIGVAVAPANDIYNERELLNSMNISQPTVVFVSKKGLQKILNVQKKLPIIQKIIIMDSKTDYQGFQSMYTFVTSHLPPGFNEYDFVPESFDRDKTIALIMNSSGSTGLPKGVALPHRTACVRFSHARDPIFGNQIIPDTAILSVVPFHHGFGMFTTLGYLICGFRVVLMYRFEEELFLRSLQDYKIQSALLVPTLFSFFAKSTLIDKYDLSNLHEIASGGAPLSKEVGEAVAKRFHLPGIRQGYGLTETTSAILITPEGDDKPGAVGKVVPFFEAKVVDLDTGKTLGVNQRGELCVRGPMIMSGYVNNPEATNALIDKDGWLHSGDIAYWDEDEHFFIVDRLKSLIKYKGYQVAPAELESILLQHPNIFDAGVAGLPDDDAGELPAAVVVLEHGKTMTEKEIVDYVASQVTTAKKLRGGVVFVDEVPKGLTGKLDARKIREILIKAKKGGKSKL
Description: GSK_PKIS: Inhibition of Firefly Luciferase (Data from PubChem: AID 652016) [NIH NCATS]

SMILES | AC50 [1] | AC50 [2] | AC50 ([2]; read-out: AC50) [µM] | AC50 ([1]; read-out: AC50) [µM]
c1ccc(-c2n[nH]cc2-c2ccnc(-c3ccc(OCCn4ccnc4)cc3)c2)nc1 [GW711782X] | Phenotype: Inactive; Curve_Description: None | Phenotype: Inactive; Curve_Description: None | – | –
COc1cc2ncnc(Nc3ccc(C)c(O)c3)c2cc1OC.Cl [GW410563A] | Phenotype: Inactive; Curve_Description: None | Phenotype: Inactive; Curve_Description: None | – | –
COc1ccc(Nc2ncc(-c3ccccc3)o2)cc1OC.Cl [GW575533A] | Phenotype: Inactive; Curve_Description: None | – | 5.8 | –
COc1cc(N2CCN(C(C)C)CC2)ccc1Nc1nc(Nc2cccc(F)c2C(=O)O)c2cc[nH]c2n1 [GSK-1819799A] | Phenotype: Inactive; Curve_Description: None | Phenotype: Inactive; Curve_Description: None | – | –
NS(=O)(=O)c1ccc(N/N=C2\C(=O)Nc3ccc4ncccc4c32)cc1 [GW305178X] | – | – | 29.1 | 23.1
Cc1ccc2c(c1)/C(=N/Nc1ccc(S(N)(=O)=O)cc1)C(=O)N2 [GW275944X] | Phenotype: Inactive; Curve_Description: None | Phenotype: Inactive; Curve_Description: None | – | –
COc1ccc2ncn(-c3cc(O[C@H](C)c4ccccc4Cl)c(C(N)=O)s3)c2c1 [GSK-317314A] | Phenotype: Inactive; Curve_Description: None | Phenotype: Inactive; Curve_Description: None | – | –
CS(=O)(=O)CCNCc1ccc(-c2ccc3ncnc(Nc4ccc(OCc5ccccc5)c(Cl)c4)c3c2)o1.Cl [GW574783B] | Phenotype: Inactive; Curve_Description: None | – | 20.6 | –
O=C(Nc1n[nH]c2cc(-c3cc(F)ccc3F)ccc12)C1CC1 | Phenotype: Inactive; Curve_Description: None | – | 16.3 | –
CN1CCC(C(=O)Nc2n[nH]c3nnc(-c4ccccc4)cc23)CC1.Cl | Phenotype: Inactive; Curve_Description: None | Phenotype: Inactive; Curve_Description: None | – | –
NS(=O)(=O)c1ccc(Nc2cc(-c3ccc(O)c(F)c3)n[nH]2)cc1 [GW831091X] | – | Phenotype: Inactive; Curve_Description: None | – | 36.6
NS(=O)(=O)c1ccc(N/N=C2\C(=O)Nc3ccc(-c4cnco4)cc32)cc1 [GW276655X] | Phenotype: Inactive; Curve_Description: None | Phenotype: Inactive; Curve_Description: None | – | –
COc1cccc(-n2ncc3c(N/N=C/c4ccc(S(C)(=O)=O)cc4)ncnc32)c1 [PYRAZOLOPYRIMIDINE 2] | Phenotype: Inactive; Curve_Description: None | – | 18.3 | –
Fc1ccc(-c2nn3ccccc3c2-c2ccncc2)cc1 [GW434756X] | – | – | 1.16 | 23.1
O=C1NC(=O)C(c2ccccc2Cl)=C1Nc1cccc(O)c1 | Phenotype: Inactive; Curve_Description: None | Phenotype: Inactive; Curve_Description: None | – | –
CN(C)CCCn1c(-c2nonc2N)nc2cnccc21 | Phenotype: Inactive; Curve_Description: None | Phenotype: Inactive; Curve_Description: None | – | –
COc1ccc2cc(-c3c(-c4ccncc4)nc(-c4ccc([S+](C)[O-])cc4C)n3C)ccc2c1 (centres undefined) | – | Phenotype: Inactive; Curve_Description: None | – | 41.1
CCn1c(-c2nonc2N)nc2ccncc21 | Phenotype: Inactive; Curve_Description: None | Phenotype: Inactive; Curve_Description: None | – | –
COc1cc(Nc2ncc(-c3ccccc3)o2)cc(OC)c1OC [GW627512B] | Phenotype: Inactive; Curve_Description: None | Phenotype: Inactive; Curve_Description: None | – | –
CCS(=O)(=O)c1ccc(OC)c(Nc2nccc(N(C)c3ccc4c(C)n[nH]c4c3)n2)c1.Cl [GW654652C] | – | Phenotype: Inactive; Curve_Description: None | – | 32.6
CS(=O)(=O)Nc1cccc(-c2ccc3c(NC(=O)C4CC4)n[nH]c3c2)c1 | Phenotype: Inactive; Curve_Description: None | – | 20.6 | –
CCCN1CCCC(c2ccc(Nc3nc(Nc4cc(F)ccc4C(N)=O)c4cc[nH]c4n3)c(OC)c2)C1 (centres undefined) [GSK-1173862A] | – | Phenotype: Inactive; Curve_Description: None | – | 32.6
